# Assay results: patent US12551463B2, “Dosing of a Bruton's tyrosine kinase inhibitor” (Loxo Oncology, Inc., priority 2019, dated 2026)
# Where two headings read alike, the source gives them in different places.
# Key:
# [1] = Phase 1/2 clinical study: pharmacokinetics in cancer patients; assay type: in vivo, human; conditions: for Tmax / concentration at 0 h / concentration at 1 h / concentration at 2 h / concentration at 4 h / concentration at 8 h / concentration at 24 h / Cmax / half-life: human, plasma, oral; for Tmax: read-out: Tmax Median (min, max); for concentration at 0 h / concentration at 1 h / concentration at 2 h / concentration at 4 h / concentration at 8 h / concentration at 24 h: read-out: Mean patient plasma CONC (SD); for concentration at 24 h: 24 hr (not measured, inferred based on predose); for Cmax: read-out: Cmax Geo mean (% CV)
# Text: The study is an open-label, multi-center study of oral BTK-I to evaluate safety and efficacy as monotherapy and as part of combination therapy in patients with CLL/SLL and NHL who have failed or are intolerant to standard of care. This study includes monotherapy as well as combination treatment parts. The monotherapy part includes Phase 1 dose escalation and dose expansion as well as Phase 2. The combination therapy part is a Phase 1b (safety assessment and expansion) of BTK-I in combination with venetoclax, with or without anti-CD20 therapy. Phase 1 dose escalation will proceed prior to start of Phase 1b or Phase 2. Once a recommended Phase 2 dose (RP2D) is identified in Phase 1, enrollment can commence to the Phase 1b combination therapies and Phase 2 monotherapy cohorts.
# BTK-I is administered in oral tablet form. Dose escalation will follow a 3+3 design starting with a 25 mg QD dose (followed by 50 mg QD (dose level cohort 2), 100 mg QD (dose level cohort 3), 150 mg QD (dose level cohort 4), 200 mg QD (dose level cohort 5), 250 mg QD (dose level cohort 6), and 300 mg QD (dose level cohort 7)). Cycle length will be 28 days. The drug limiting toxicity (DLT) period will be 28 days, commencing with the first dose of BTK-I.
# The pharmacokinetic profiles and adverse events for BTK-I doses are summarized in the below tables.
# Pharmacokinetic Parameters of BTK-I—in Cancer Patients at Steady State (Cycle 1 Day 8)
# [2] = test system: CLL/SLL, MCL, Waldenstrom's macroglobulinemia and follicular lymphoma patients; assay: Human clinical trials of BTK-I: overall response rate in efficacy-evaluable patients; assay type: in vivo
# Method: (Mato A., et al., “Toxicities and Outcomes of 616 Ibrutinib-Treated Patients in the United States: A Real-World Analysis”, Haematologica, 2018, 103(5), 874-879.) Between Mar. 21, 2019 and Sep. 27, 2020, across 7 dose levels ranging from 25 mg once daily (QD) to 300 mg QD in 323 patients, the only treatment-emergent adverse events regardless of attribution or grade seen in ≥10% of patients (n=323) were fatigue (n=65, 20%), diarrhea (n=55, 17%), and contusion (n=42, 13%). In 121 efficacy-evaluable cBTKi-treated chronic lymphocytic leukemia (CLL) patients (median prior lines=4), overall response rate (ORR) was 62% (95% CI: 53-71), rising to 84% in patients followed for ≥10 months.
# [3] = 150 mg QD, steady state (Cycle 1 Day 8), N=20
# [4] = 200 mg QD, steady state (Cycle 1 Day 8), N=99
# [5] = 300 mg QD, steady state (Cycle 1 Day 8), N=17
structure (smiles),measurement,setting,value
"COc1ccc(F)cc1C(=O)NCc1ccc(-c2nn([C@@H](C)C(F)(F)F)c(N)c2C(N)=O)cc1 [BTK-I, (S)-5-amino-3-(4-((5-fluoro-2-methoxybenzamido)methyl)phenyl)-1-(1,1,1-trifluoropropane-2-yl)-1H-pyrazole-4-carboxamide]",Tmax,"[1]; 100 mg QD, steady state (Cycle 1 Day 8), N=9",2 h
same,concentration at 0 h,[1]; 100 mg,1580 ng/mL
same,concentration at 1 h,[1]; 100 mg,2170 ng/mL
same,concentration at 2 h,[1]; 100 mg,3670 ng/mL
same,concentration at 4 h,[1]; 100 mg,2800 ng/mL
same,concentration at 8 h,[1]; 100 mg,2360 ng/mL
same,concentration at 24 h,[1]; 100 mg,1580 ng/mL
same,Cmax,[1]; [3],4680 ng/mL
same,Tmax,[1]; [3],2 h
same,concentration at 0 h,[1]; 150 mg,1800 ng/mL
same,concentration at 1 h,[1]; 150 mg,3670 ng/mL
same,concentration at 2 h,[1]; 150 mg,4640 ng/mL
same,concentration at 4 h,[1]; 150 mg,3660 ng/mL
same,concentration at 8 h,[1]; 150 mg,3320 ng/mL
same,concentration at 24 h,[1]; 150 mg,1800 ng/mL
same,half-life,"[1]; 200 mg QD, steady state (Cycle 1 Day 8), N = 64, % CV 56.2%, read-out: T1/2 Geo mean (% CV) (converted)",19.9 h
same,Cmax,[1]; [4],5770 ng/mL
same,Tmax,[1]; [4],2 h
same,concentration at 0 h,[1]; 200 mg,2770 ng/mL
same,concentration at 1 h,[1]; 200 mg,4940 ng/mL
same,concentration at 2 h,[1]; 200 mg,6160 ng/mL
same,concentration at 4 h,[1]; 200 mg,5270 ng/mL
same,concentration at 8 h,[1]; 200 mg,4660 ng/mL
same,concentration at 24 h,[1]; 200 mg,2770 ng/mL
same,half-life,"[1]; 250 mg QD, steady state (Cycle 1 Day 8), N = 21, % CV 50.6%, read-out: T1/2 Geo mean (% CV) (converted)",17.4 h
same,Tmax,"[1]; 250 mg QD, steady state (Cycle 1 Day 8), N=25",2 h
same,concentration at 0 h,[1]; 250 mg,3160 ng/mL
same,concentration at 1 h,[1]; 250 mg,6910 ng/mL
same,concentration at 2 h,[1]; 250 mg,7870 ng/mL
same,concentration at 4 h,[1]; 250 mg,6840 ng/mL
same,concentration at 8 h,[1]; 250 mg,5500 ng/mL
same,concentration at 24 h,[1]; 250 mg,3160 ng/mL
same,half-life,"[1]; 300 mg QD, steady state (Cycle 1 Day 8), N = 16, % CV 102%, read-out: T1/2 Geo mean (% CV) (converted)",30.1 h
same,Cmax,[1]; [5],10700 ng/mL
same,Tmax,[1]; [5],2 h
same,concentration at 0 h,[1]; 300 mg,5510 ng/mL
same,concentration at 1 h,[1]; 300 mg,9730 ng/mL
same,concentration at 2 h,[1]; 300 mg,10700 ng/mL
same,concentration at 4 h,[1]; 300 mg,8420 ng/mL
same,concentration at 8 h,[1]; 300 mg,7510 ng/mL
same,concentration at 24 h,[1]; 300 mg,5510 ng/mL
same,half-life,"[1]; patients, read-out: observed half-life (converted)",~20 h
same,target coverage for wild-type and C481S-mutated BTK,"[1]; starting at the 50 mg QD dose, estimates from cell-based potencies",delivered >IC90 target coverage
same,ORR,"[2]; 52 efficacy-evaluable cBTKi-treated MCL patients, 95% CI: 38-66",52%
same,overall response rate (ORR),"[2]; 121 efficacy-evaluable cBTKi-treated CLL patients, median prior lines=4, 95% CI: 53-71",62%
same,ORR,[2]; CLL/SLL patients with BTK C481-mutant disease (17/24),71%
same,ORR,[2]; CLL/SLL patients with BTK-wildtype disease (43/65),66%
same,ORR,[2]; CLL/SLL patients with cBTKi intolerance (22/42),52%
same,ORR,[2]; CLL/SLL patients with prior cBTKi resistance (53/79),67%
same,ORR,"[2]; Waldenstrom's macroglobulinemia (WM), n=19",68%
same,overall response rate (ORR),[2]; cBTKi-treated CLL patients followed for ≥10 months,84%
same,ORR,"[2]; follicular lymphoma (FL), n=8",50%
same,responding patients who remain progression-free,[2]; of 117 responding CLL or MCL patients,all but 8
